Data: paper PMC4159853 (2014)

Legend:
[1] = system: R12.57 (DNA, aptamer) TGTACCGTCTGAGCGATTCGTACGGATTGGGTTTGCACTTTACCTGCGGTGCATCGCAGCCAGTCAGTGTTAAGGAGTGC; experiment: fluorescence saturation bead-based binding assay; settings: 100 mM NaCl, 2 mM MgCl2; immobilised compound; 20 mM Tris-HCl, 10% methanol; reported as Kd for atrazine; some non-specific bead binding
[2] = system: R12.28 (DNA, aptamer) TGTACCGTCTGAGCGATTCGTACCATTAGTGGGTGCTCCTTACCTGATGGTCATCTAGCCAGTCAGTGTTAAGGAGTGC; experiment: fluorescence saturation bead-based binding assay; settings: 100 mM NaCl, 2 mM MgCl2; immobilised compound; 20 mM Tris-HCl, 10% methanol; reported as Kd for atrazine; some non-specific bead binding
[3] = system: R12.23 (DNA, aptamer) TGTACCGTCTGAGCGATTCGTACGAACGGCTTTGTACTGTTTGCACTGGCGGATTTAGCCAGTCAGTGTTAAGGAGTGC; experiment: fluorescence saturation bead-based binding assay; settings: 100 mM NaCl, 2 mM MgCl2; immobilised compound; 20 mM Tris-HCl, 10% methanol; reported by authors as Kd for atrazine
[4] = system: R12.23 (DNA, aptamer) TGTACCGTCTGAGCGATTCGTACGAACGGCTTTGTACTGTTTGCACTGGCGGATTTAGCCAGTCAGTGTTAAGGAGTGC; experiment: competitive elution of fluorescent ssDNA from target beads; settings: 100 mM NaCl, 2 mM MgCl2; 20 mM Tris-HCl, 10% methanol; 100 µM eluent, 5 nM ssDNA; buffer alone 0.15; from immobilised desethyl atrazine
[5] = system: 34-base truncation of R12.23 (DNA, aptamer) TACTGTTTGCACTGGCGGATTTAGCCAGTCAGTG; experiment: bead capture from processed river water, capillary electrophoresis quantification; settings: 100 mM NaCl, 2 mM MgCl2; 20 mM Tris-HCl; extract of river water spiked with 40 nM; 37% (1.5 nmol) recovered

| Normalized Average Fluorescence [4] | Structure (SMILES) | further results |
| --- | --- | --- |
| – | CC(C)Nc1nc(Cl)nc(NC(=O)CCCCCNC(=O)CCCC[C@@H]2SC[C@@H]3NC(=O)N[C@@H]32)n1 | Kd [1]: 20.78 ± 4.74 nM; Kd [2]: 5.10 ± 1.32 nM; Kd [3]: 0.62 ± 0.21 nM |
| −0.054 ± 0.44 | CC(C)Nc1nc(N)nc(Cl)n1 | – |
| 0.65 ± 0.13 | CCC(=O)Nc1ccc(Cl)c(Cl)c1 | – |
| 1 ± 0.11 | CCNc1nc(Cl)nc(NC(C)C)n1 | binding [5]: yes |
| 0.47 ± 0.14 | CCNc1nc(Cl)nc(NCC)n1 | – |
| 0.47 ± 0.10 | Nc1nc(N)nc(Cl)n1 | – |
| 0.64 ± 0.11 | O=C(O)COc1ccc(Cl)cc1Cl | – |
